Assay results as given in PubChem BioAssay AID1745844 (Carcinogenic Potency Database (CPDB), 2022).
Where “and” joins values, the source holds several entries; their conditions need not be identical. Equal values may be shown once. Calls of active or inactive are those of the source. How the calls were made is not given here.

System: rodent lifetime carcinogenesis bioassay, tumor incidence TD50
Assay: chronic cancer bioassays in animals – CPDB, compiled studies (AID 1745844)

ClC=C(Cl)Cl
TD50 (mouse, strain Swiss, males, inhaled, site: any site (literature study), lesion: several types, types named in the paper, dosed 78 weeks, study length 145 weeks): 8070 mg/kg/day | TD50 (mouse, strain Swiss, males, inhaled, site: liver, lesion: hepatoma, dosed 78 weeks, study length 145 weeks): 3910 mg/kg/day | TD50 (mouse, strain Swiss, males, inhaled, site: lung, lesion: one or several types, types not named, dosed 78 weeks, study length 145 weeks): 10100 mg/kg/day | TD50 (rat, strain ACI, females, by gavage, site: any site (literature study), lesion: several types, types named in the paper, dosed 103 weeks, study length 104 weeks): 61700 mg/kg/day | TD50 (rat, strain ACI, females, by gavage, site: kidney, lesion: adenocarcinoma, NOS + tubular-cell adenocarcinoma, dosed 103 weeks, study length 104 weeks): 7800 mg/kg/day | TD50 (rat, strain ACI, females, by gavage, site: kidney, lesion: adenocarcinoma, NOS + tubular-cell adenoma + tubular-cell adenocarcinoma, dosed 103 weeks, study length 104 weeks): 3760 mg/kg/day | TD50 (rat, strain ACI, males, by gavage, site: any site (literature study), lesion: several types, types named in the paper, dosed 103 weeks, study length 104 weeks): 820 mg/kg/day | TD50 (rat, strain ACI, males, by gavage, site: kidney, lesion: tubular-cell adenocarcinoma, dosed 103 weeks, study length 104 weeks): 12000 mg/kg/day | TD50 (rat, strain ACI, males, by gavage, site: liver, lesion: hepatocellular adenoma + hepatocellular carcinoma + neoplastic nodule, dosed 103 weeks, study length 104 weeks): 9400 mg/kg/day | TD50 (rat, strain August, females, by gavage, site: kidney, lesion: tubular-cell adenoma + tubular-cell adenocarcinoma, dosed 103 weeks, study length 104 weeks): 2240 mg/kg/day | TD50 (rat, strain August, males, by gavage, site: kidney, lesion: tubular-cell adenocarcinoma, dosed 103 weeks, study length 104 weeks): 10800 mg/kg/day | TD50 (rat, strain August, males, by gavage, site: kidney, lesion: tubular-cell adenoma + tubular-cell adenocarcinoma, dosed 103 weeks, study length 104 weeks): 3810 mg/kg/day | TD50 (rat, strain August, males, by gavage, site: liver, lesion: hepatocellular adenoma + hepatocellular carcinoma + neoplastic nodule, dosed 103 weeks, study length 104 weeks): 6440 mg/kg/day | TD50 (rat, strain August, males, by gavage, site: subcutaneous tissue, lesion: sarcoma, NOS + sarcoma, NOS, dosed 103 weeks, study length 104 weeks): 3730 mg/kg/day | TD50 (rat, strain Charles River CD (Sprague-Dawley), females, inhaled, site: kidney, lesion: tubular-cell adenocarcinoma, dosed 104 weeks, study length 107 weeks): 10700 mg/kg/day | TD50 (rat, strain Charles River CD (Sprague-Dawley), females, inhaled, site: liver, lesion: several types, types named in the paper, dosed 104 weeks, study length 107 weeks): 12300 mg/kg/day | TD50 (rat, strain Charles River CD (Sprague-Dawley), females, inhaled, site: mammary gland, lesion: fibroadenoma, dosed 104 weeks, study length 107 weeks): 982 mg/kg/day | TD50 (rat, strain Fischer 344, females, by gavage, site: any site (literature study), lesion: several types, types named in the paper, dosed 103 weeks, study length 103 weeks): 5710 mg/kg/day (inactive) | TD50 (rat, strain Fischer 344, females, by gavage, site: kidney, lesion: tubular-cell adenocarcinoma, dosed 103 weeks, study length 103 weeks): 23000 mg/kg/day | TD50 (rat, strain Fischer 344, females, by gavage, site: liver, lesion: hepatocellular adenoma + hepatocellular carcinoma + neoplastic nodule, dosed 103 weeks, study length 103 weeks): 9980 mg/kg/day | TD50 (rat, strain Fischer 344, males, by gavage, site: any site (literature study), lesion: several types, types named in the paper, dosed 103 weeks, study length 103 weeks): 2240 mg/kg/day | TD50 (rat, strain Fischer 344, males, by gavage, site: kidney, lesion: tubular-cell adenocarcinoma, dosed 103 weeks, study length 103 weeks): 3920 mg/kg/day | TD50 (rat, strain Fischer 344, males, by gavage, site: kidney, lesion: tubular-cell adenoma + tubular-cell adenocarcinoma, dosed 103 weeks, study length 103 weeks): 2780 mg/kg/day | TD50 (rat, strain Fischer 344, males, by gavage, site: liver, lesion: hepatocellular adenoma + hepatocellular carcinoma + neoplastic nodule, dosed 103 weeks, study length 103 weeks): 12200 mg/kg/day | TD50 (rat, strain Fischer 344, males, by gavage, site: peritoneum, lesion: mesothelioma, NOS + mesothelioma, malignant, dosed 103 weeks, study length 103 weeks): 1490 mg/kg/day | TD50 (rat, strain Fischer 344, males, by gavage, site: peritoneum, lesion: mesothelioma, malignant, dosed 103 weeks, study length 103 weeks): 1490 mg/kg/day | TD50 (rat, strain Han:WIST, females, inhaled, site: any site (literature study), lesion: benign tumor, dosed 78 weeks, study length 156 weeks): 2120 mg/kg/day (inactive) | carcinogen call (rat, strain Han:WIST, females, inhaled, site: any site (literature study), lesion: malignant tumor, dosed 78 weeks, study length 156 weeks): negative (inactive) | TD50 (rat, strain Han:WIST, females, inhaled, site: kidney, lesion: tubular-cell adenoma, dosed 78 weeks, study length 156 weeks): 5500 mg/kg/day (inactive) | carcinogen call (rat, strain Han:WIST, females, inhaled, site: liver, lesion: hepatocellular adenoma, dosed 78 weeks, study length 156 weeks): negative (inactive) | carcinogen call (rat, strain Han:WIST, males, inhaled, site: any site (literature study), lesion: benign tumor, dosed 78 weeks, study length 156 weeks): negative (inactive) | TD50 (rat, strain Han:WIST, males, inhaled, site: any site (literature study), lesion: malignant tumor, dosed 78 weeks, study length 156 weeks): 351 mg/kg/day (inactive) | TD50 (rat, strain Han:WIST, males, inhaled, site: kidney, lesion: tubular-cell adenocarcinoma, dosed 78 weeks, study length 156 weeks): 3850 mg/kg/day (inactive) | TD50 (rat, strain Han:WIST, males, inhaled, site: kidney, lesion: tubular-cell adenoma, dosed 78 weeks, study length 156 weeks): 10700 mg/kg/day (inactive) | carcinogen call (rat, strain Han:WIST, males, inhaled, site: liver, lesion: hepatocellular adenoma, dosed 78 weeks, study length 156 weeks): negative (inactive) | TD50 (rat, strain Marshall, females, by gavage, site: any site (literature study), lesion: several types, types named in the paper, dosed 103 weeks, study length 104 weeks): 709 mg/kg/day | TD50 (rat, strain Marshall, females, by gavage, site: kidney, lesion: tubular-cell adenocarcinoma, dosed 103 weeks, study length 104 weeks): 4110 mg/kg/day | TD50 (rat, strain Marshall, females, by gavage, site: kidney, lesion: tubular-cell adenoma + tubular-cell adenocarcinoma, dosed 103 weeks, study length 104 weeks): 4370 mg/kg/day | TD50 (rat, strain Marshall, males, by gavage, site: any site (literature study), lesion: several types, types named in the paper, dosed 103 weeks, study length 104 weeks): 199 mg/kg/day | TD50 (rat, strain Marshall, males, by gavage, site: kidney, lesion: tubular-cell adenocarcinoma, dosed 103 weeks, study length 104 weeks): 8000 mg/kg/day | TD50 (rat, strain Marshall, males, by gavage, site: kidney, lesion: tubular-cell adenoma + tubular-cell adenocarcinoma, dosed 103 weeks, study length 104 weeks): 5710 mg/kg/day | TD50 (rat, strain Marshall, males, by gavage, site: testis, lesion: interstitial-cell tumor + interstitial-cell tumor, malignant, dosed 103 weeks, study length 104 weeks): 153 mg/kg/day | TD50 (rat, strain Marshall, males, by gavage, site: testis, lesion: interstitial-cell tumor, malignant, dosed 103 weeks, study length 104 weeks): 6540 mg/kg/day | TD50 (rat, strain Osborne-Mendel, females, by gavage, site: adrenal gland, lesion: cortical adenoma, dosed 103 weeks, study length 104 weeks): 556 mg/kg/day | TD50 (rat, strain Osborne-Mendel, females, by gavage, site: any site (literature study), lesion: several types, types named in the paper, dosed 78 weeks, study length 110 weeks): 5620 mg/kg/day (inactive) | TD50 (rat, strain Osborne-Mendel, females, by gavage, site: any site (literature study), lesion: several types, types named in the paper, dosed 103 weeks, study length 104 weeks): 372 mg/kg/day | TD50 (rat, strain Osborne-Mendel, females, by gavage, site: kidney, lesion: tubular-cell adenoma, dosed 103 weeks, study length 104 weeks): 10700 mg/kg/day | TD50 (rat, strain Osborne-Mendel, females, by gavage, site: liver, lesion: hepatocellular adenoma + hepatocellular carcinoma + neoplastic nodule, dosed 103 weeks, study length 104 weeks): 3500 mg/kg/day | TD50 (rat, strain Osborne-Mendel, males, by gavage, site: any site (literature study), lesion: several types, types named in the paper, dosed 78 weeks, study length 110 weeks): 16000 mg/kg/day | TD50 (rat, strain Osborne-Mendel, males, by gavage, site: any site (literature study), lesion: several types, types named in the paper, dosed 103 weeks, study length 104 weeks): 1490 mg/kg/day | TD50 (rat, strain Osborne-Mendel, males, by gavage, site: kidney, lesion: tubular-cell adenocarcinoma, dosed 78 weeks, study length 110 weeks): 7220 mg/kg/day | TD50 (rat, strain Osborne-Mendel, males, by gavage, site: kidney, lesion: tubular-cell adenoma + tubular-cell adenocarcinoma, dosed 103 weeks, study length 104 weeks): 628 mg/kg/day | TD50 (rat, strain Osborne-Mendel, males, by gavage, site: kidney, lesion: tubular-cell adenoma, dosed 103 weeks, study length 104 weeks): 628 mg/kg/day | TD50 (rat, strain Osborne-Mendel, males, by gavage, site: liver, lesion: hepatocellular adenoma + hepatocellular carcinoma + neoplastic nodule, dosed 103 weeks, study length 104 weeks): 8950 mg/kg/day | TD50 (rat, strain Sprague-Dawley, females, inhaled, site: any site (literature study), lesion: several types, types named in the paper, dosed 104 weeks, study length 159 weeks): 3890 mg/kg/day | TD50 (rat, strain Sprague-Dawley, females, inhaled, site: kidney, lesion: several types, types named in the paper, dosed 104 weeks, study length 159 weeks): 41300 mg/kg/day | TD50 (rat, strain Sprague-Dawley, females, inhaled, site: kidney, lesion: tubular-cell adenocarcinoma, dosed 104 weeks, study length 159 weeks): 43200 mg/kg/day | TD50 (rat, strain Sprague-Dawley, females, inhaled, site: liver, lesion: angiosarcoma, dosed 104 weeks, study length 159 weeks): 8010 mg/kg/day | TD50 (rat, strain Sprague-Dawley, females, inhaled, site: liver, lesion: neoplastic nodule, dosed 104 weeks, study length 159 weeks): 9680 mg/kg/day | TD50 (rat, strain Sprague-Dawley, males, by gavage, site: all sites, lesion: leukemia, dosed 52 weeks, study length 140 weeks): 428 mg/kg/day | TD50 (rat, strain Sprague-Dawley, males, by gavage, site: any site (literature study), lesion: malignant tumor, dosed 52 weeks, study length 140 weeks): 818 mg/kg/day | TD50 (rat, strain Sprague-Dawley, males, inhaled, site: all sites, lesion: leukemia, dosed 104 weeks, study length 159 weeks): 5930 mg/kg/day and 2810 mg/kg/day | TD50 (rat, strain Sprague-Dawley, males, inhaled, site: kidney, lesion: tubular-cell adenocarcinoma, dosed 104 weeks, study length 159 weeks): 9490 mg/kg/day and 12400 mg/kg/day | TD50 (rat, strain Sprague-Dawley, males, inhaled, site: kidney, lesion: tubular-cell adenoma, dosed 104 weeks, study length 159 weeks): 29200 mg/kg/day | TD50 (rat, strain Sprague-Dawley, males, inhaled, site: liver, lesion: neoplastic nodule, dosed 104 weeks, study length 159 weeks): 30700 mg/kg/day | TD50 (rat, strain Sprague-Dawley, males, inhaled, site: mammary gland, lesion: one or several types, types not named, dosed 104 weeks, study length 159 weeks): 120 mg/kg/day | TD50 (rat, strain Sprague-Dawley, males, inhaled, site: testis, lesion: Leydig-cell tumor, dosed 104 weeks, study length 159 weeks): 557 mg/kg/day and 835 mg/kg/day
